# Literature values, collected in US20030232078A1, “Formulation & dosage form for the controlled delivery of therapeutic agents” (priority 2001, published 2003).
# Details: conventional formulations; well known
row,absorption in the lower GI tract,Compound
1,not absorbed in significant amounts,N[C@@H](Cc1ccc(O)c(O)c1)C(=O)O [L-dopa]
2,not absorbed in significant amounts,C[C@@](Cc1ccc(O)c(O)c1)(NN)C(=O)O [carbidopa]

row,Compound,absorption in the lower GI tract
1,CS(=O)(=O)Nc1ccc(F)c([C@@H](O)CN)c1.Cl [ABT-232],not absorbed in significant amounts
